Assay results published in US20060100215A1, “8A,9-dihydro-4aH-isothiazolo[5,4-b]quinoline-3,4-diones and related compounds as anti-infective agents” (priority 2004, published 2006).
≈ marks a conversion by molar mass, not a printed value.

Experiments:
E. coli ATCC 25922 = experiment: Minimum inhibitory concentration (MIC) assay, broth microdilution; format: cell-based; details: Escherichia coli, ATCC25922, Mueller-Hinton II broth, 37° C., 18 to 24 hours, lowest concentration that inhibited visible growth
Protocol: (§1) The antimicrobial activity of the compounds of the invention may be evaluated by a number of methods, including the following visual minimum inhibitory concentration (MIC) assay. This assay determines the minimum concentration of compound required to inhibit growth of a bacterial strain. Minimum Inhibitory Concentration (MIC) Assay Whole-cell antibacterial activity is determined by broth microdilution using conditions recommended by the NCCLS (see National Committee for Clinical Laboratory Standards. 2001. Performance standards for antimicrobial susceptibility testing: 11th informational supplement. Vol. 21, no. 1, M100-S11. National Committee for Clinical Laboratory Standards, Wayne, Pa.). Test compounds are dissolved in DMSO and diluted 1:50 in Mueller-Hinton II broth (Becton-Dickinson) to produce a 256 μg/ml stock solution. In a 96-well microtiter plate, the compound solution is serially two-fold diluted in Mueller-Hinton II broth. After the compounds are diluted, a 50 μl aliquot of the test organism (˜1×10^6 cfu/mL) is added to each well of the microtiter plate. The final test concentrations ranges from 0.125-128 μg/mL. Inoculated plates are incubated in ambient air at 37° C. for 18 to 24 hours. The organisms selected for testing included laboratory strains S. aureus ATCC 29213 and E. coli ATCC 25922 (strains purchased from American Type Culture Collection, Manassas, Va.). The minimum inhibitory concentration (MIC) is determined as the lowest concentration of compound that inhibited visible growth of the test organism.

S. aureus ATCC 29213 = experiment: as above; format: cell-based; details: Staphylococcus aureus, ATCC29213, Mueller-Hinton II broth, 37° C., 18 to 24 hours, lowest concentration that inhibited visible growth
Protocol: as §1

SMILES | MIC (E. coli ATCC 25922) [µg/mL] | MIC (S. aureus ATCC 29213) [µg/mL]
CO/N=C1\CN(c2c(F)cc3c(=O)c4c(=O)[nH]sc4n(C4CC4)c3c2OC)CC1CN (stereo not drawn) [Compound 39, 7-(3-Aminomethyl-4-methoxyimino-pyrrolidin-1-yl)-9-cyclopropyl-6-fluoro-8-methoxy-9H-isothiazolo[5,4-b]quinoline-3,4-dione] | 0.125 (≈ 0.279 µM) | < 0.05
CO/N=C1\CN(c2nc3c(cc2F)c(=O)c2c(=O)[nH]sc2n3C2CC2)CC1CN (stereo not drawn) [Compound 42, 7-(3-Aminomethyl-4-methoxyimino-pyrrolidin-1-yl)-9-cyclopropyl-6-fluro-9H-1-thia-2,8,9-triaza-cyclopenta[b]naphtalene-3,4-dione] | < 0.125 | < 0.1

Other lines, results leading:

MIC (E. coli ATCC 25922) [µg/mL] | MIC (S. aureus ATCC 29213) [µg/mL] | SMILES
< 0.05 | 0.05 (≈ 0.12 µM) | CO/N=C1\CN(c2cc3c(cc2F)c(=O)c2c(=O)[nH]sc2n3C2CC2)CC1CN (stereo not drawn) [Compound 13]
< 0.05 | < 0.05 | CO/N=C1\CN(c2cc3c(cc2F)c(=O)c2c(=O)[nH]sc2n3C2CC2)CC1(C)CN (stereo not drawn) [Compound 27]
< 0.05 | < 0.05 | CON=C1CCN(c2cc3c(cc2F)c(=O)c2c(=O)[nH]sc2n3C2CC2)CC1 [Compound 32, 9-Cyclopropyl-6-fluoro-7-(4-methoxyimino-piperidin-1-yl)-9H-isothiazolo[5,4-b]quinoline-3,4-dione]
< 0.1 | < 0.05 | CO/N=C1\CN(c2cc3c(cc2F)c(=O)c2c(=O)[nH]sc2n3C2CC2)CC1CO (stereo not drawn) [Compound 41, 9-Cyclopropyl-6-fluoro-7-(3-hydroxymethyl-4-methoxyimino-pyrrolidin-1-yl)-9H-isothiazolo[5,4-b]quinoline-3,4-dione]
